Read-outs that look alike come from different tables or passages of the source.
What was measured:
Assay in all cases: biochemical
Type in all cases: binding
panel of 442 kinases [1] = biological target: T1, panel of 442 kinases (Homo sapiens, UniProt P42685); conditions: kinase FRK; for remaining activity at 1 µM: read-out: % of control at 1 µM
T1 construct: purchased Ambit Biosciences (scanMAXX KINOMEscan)

panel of 442 kinases [2] = biological target: T2, panel of 442 kinases (Homo sapiens, UniProt P19784); conditions: CSNK2A2; for remaining activity at 1 µM: read-out: % of control at 1 µM
T2 construct: purchased Ambit Biosciences (scanMAXX KINOMEscan)

panel of 442 kinases [3] = biological target: T3, panel of 442 kinases (Homo sapiens, UniProt Q07002); conditions: kinase PCTK3; for remaining activity at 1 µM: read-out: % of control at 1 µM
T3 construct: purchased Ambit Biosciences (scanMAXX KINOMEscan)

panel of 442 kinases [4] = biological target: T4, panel of 442 kinases (Homo sapiens, UniProt Q9Y243); conditions: AKT3; for remaining activity at 1 µM: read-out: % of control at 1 µM
T4 construct: purchased Ambit Biosciences (scanMAXX KINOMEscan)

panel of 442 kinases [5] = biological target: T5, panel of 442 kinases (Homo sapiens, UniProt Q92918); conditions: kinase HPK1; for remaining activity at 1 µM: read-out: % of control at 1 µM
T5 construct: purchased Ambit Biosciences (scanMAXX KINOMEscan)

panel of 442 kinases [6] = biological target: T6, panel of 442 kinases (Homo sapiens, UniProt P29376); conditions: kinase LTK; for remaining activity at 1 µM: read-out: % of control at 1 µM
T6 construct: purchased Ambit Biosciences (scanMAXX KINOMEscan)

panel of 442 kinases [7] = biological target: T7, panel of 442 kinases (Homo sapiens, UniProt O95747); conditions: kinase OSR1; for remaining activity at 1 µM: read-out: % of control at 1 µM
T7 construct: purchased Ambit Biosciences (scanMAXX KINOMEscan)

panel of 442 kinases [8] = biological target: T8, panel of 442 kinases (Homo sapiens, UniProt Q15208); conditions: kinase NDR1; for remaining activity at 1 µM: read-out: % of control at 1 µM
T8 construct: purchased Ambit Biosciences (scanMAXX KINOMEscan)

panel of 442 kinases [9] = biological target: T9, panel of 442 kinases (Homo sapiens, UniProt Q9P2K8, S808G); conditions: kinase GCN2(Kin.Dom.2,S808G); for remaining activity at 1 µM: read-out: % of control at 1 µM
T9 construct: purchased Ambit Biosciences (scanMAXX KINOMEscan)

panel of 442 kinases [10] = biological target: T10, panel of 442 kinases (Homo sapiens, UniProt Q16513); conditions: kinase PKN2; for remaining activity at 1 µM: read-out: PKN2 (% of control at 1 µM)
T10 construct: purchased Ambit Biosciences (scanMAXX KINOMEscan)

panel of 442 kinases [11] = biological target: T11, panel of 442 kinases (Homo sapiens, UniProt O43318); conditions: kinase TAK1; for remaining activity at 1 µM: read-out: TAK1 (% of control at 1 µM)
T11 construct: purchased Ambit Biosciences (scanMAXX KINOMEscan)
T11 sequence (O43318 1-606): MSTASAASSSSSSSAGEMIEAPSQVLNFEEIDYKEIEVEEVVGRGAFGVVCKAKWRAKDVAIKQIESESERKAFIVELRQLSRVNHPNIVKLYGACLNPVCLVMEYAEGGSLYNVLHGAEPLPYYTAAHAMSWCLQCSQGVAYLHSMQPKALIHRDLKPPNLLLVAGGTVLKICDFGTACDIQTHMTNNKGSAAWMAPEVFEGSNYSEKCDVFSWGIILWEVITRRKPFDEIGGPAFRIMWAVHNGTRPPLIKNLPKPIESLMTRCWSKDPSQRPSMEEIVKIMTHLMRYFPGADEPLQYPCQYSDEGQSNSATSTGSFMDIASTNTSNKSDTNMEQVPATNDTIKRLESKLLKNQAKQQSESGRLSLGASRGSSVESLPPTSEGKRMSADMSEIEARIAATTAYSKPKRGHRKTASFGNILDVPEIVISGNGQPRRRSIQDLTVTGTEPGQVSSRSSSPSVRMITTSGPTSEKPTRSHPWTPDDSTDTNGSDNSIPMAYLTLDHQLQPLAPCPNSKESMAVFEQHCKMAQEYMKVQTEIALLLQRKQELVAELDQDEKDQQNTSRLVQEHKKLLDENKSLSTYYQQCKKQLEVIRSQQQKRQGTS

panel of 442 kinases [12] = biological target: T12, panel of 442 kinases (Homo sapiens, UniProt O75676)
T12 construct: purchased Ambit Biosciences (scanMAXX KINOMEscan)

panel of 442 kinases [13] = biological target: T13, panel of 442 kinases (Homo sapiens, UniProt P54764); conditions: EPHA4; for remaining activity at 1 µM: read-out: % of control at 1 µM
T13 construct: purchased Ambit Biosciences (scanMAXX KINOMEscan)

panel of 442 kinases [14] = biological target: T14, panel of 442 kinases (Homo sapiens, UniProt Q13131); conditions: AMPK-alpha1; for remaining activity at 1 µM: read-out: % of control at 1 µM
T14 construct: purchased Ambit Biosciences (scanMAXX KINOMEscan)

panel of 442 kinases [15] = biological target: T15, panel of 442 kinases (Homo sapiens, UniProt Q9P286); conditions: kinase PAK7; for remaining activity at 1 µM: read-out: % of control at 1 µM
T15 construct: purchased Ambit Biosciences (scanMAXX KINOMEscan)

panel of 442 kinases [16] = biological target: T16, panel of 442 kinases (Homo sapiens, UniProt Q15303); conditions: ERBB4; for remaining activity at 1 µM: read-out: % of control at 1 µM
T16 construct: purchased Ambit Biosciences (scanMAXX KINOMEscan)

[17] = 10 µM, read-out: % of control at 10 µM
[18] = kinase RPS6KA4(Kin.Dom.1-N-terminal), read-out: RPS6KA4(Kin.Dom.1-N-terminal) (% of control at 1 µM)
[19] = kinase RPS6KA4(Kin.Dom.2-C-terminal), read-out: RPS6KA4(Kin.Dom.2-C-terminal) (% of control at 1 µM)

T16 sequence (Q15303 26-1308): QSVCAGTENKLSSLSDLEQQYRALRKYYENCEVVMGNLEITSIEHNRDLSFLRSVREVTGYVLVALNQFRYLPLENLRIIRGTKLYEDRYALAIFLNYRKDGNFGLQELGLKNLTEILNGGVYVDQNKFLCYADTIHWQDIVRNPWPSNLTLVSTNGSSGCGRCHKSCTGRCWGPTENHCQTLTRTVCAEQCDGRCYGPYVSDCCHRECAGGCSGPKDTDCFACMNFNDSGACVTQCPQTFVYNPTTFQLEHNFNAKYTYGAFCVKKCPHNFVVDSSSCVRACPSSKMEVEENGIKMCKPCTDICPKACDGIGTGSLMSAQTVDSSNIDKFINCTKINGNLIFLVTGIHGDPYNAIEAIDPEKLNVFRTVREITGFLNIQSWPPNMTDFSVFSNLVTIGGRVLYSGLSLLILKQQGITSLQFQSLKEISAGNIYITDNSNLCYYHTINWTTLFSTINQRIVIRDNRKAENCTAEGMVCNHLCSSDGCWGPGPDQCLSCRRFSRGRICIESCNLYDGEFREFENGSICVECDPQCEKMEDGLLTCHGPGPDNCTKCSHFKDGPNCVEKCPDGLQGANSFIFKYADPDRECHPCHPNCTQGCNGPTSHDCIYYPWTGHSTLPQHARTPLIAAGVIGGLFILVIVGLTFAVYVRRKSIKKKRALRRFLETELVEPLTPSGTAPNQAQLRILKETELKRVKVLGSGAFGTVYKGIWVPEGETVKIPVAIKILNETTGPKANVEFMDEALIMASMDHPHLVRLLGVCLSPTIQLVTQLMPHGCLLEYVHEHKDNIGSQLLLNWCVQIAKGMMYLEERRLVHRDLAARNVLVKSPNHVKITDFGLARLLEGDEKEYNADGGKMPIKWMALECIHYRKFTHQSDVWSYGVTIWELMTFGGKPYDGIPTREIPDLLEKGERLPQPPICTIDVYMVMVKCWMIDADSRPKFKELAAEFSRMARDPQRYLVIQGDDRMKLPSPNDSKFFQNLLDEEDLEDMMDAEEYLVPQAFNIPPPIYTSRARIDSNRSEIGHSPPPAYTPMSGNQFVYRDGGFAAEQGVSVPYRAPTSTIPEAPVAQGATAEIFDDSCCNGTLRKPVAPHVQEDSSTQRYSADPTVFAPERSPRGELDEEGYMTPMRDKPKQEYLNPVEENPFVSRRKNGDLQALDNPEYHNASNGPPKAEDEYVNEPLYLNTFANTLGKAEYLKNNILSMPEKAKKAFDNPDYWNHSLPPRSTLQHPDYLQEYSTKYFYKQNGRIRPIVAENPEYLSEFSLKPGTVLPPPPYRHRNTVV
T15 sequence (Q9P286 whole entry): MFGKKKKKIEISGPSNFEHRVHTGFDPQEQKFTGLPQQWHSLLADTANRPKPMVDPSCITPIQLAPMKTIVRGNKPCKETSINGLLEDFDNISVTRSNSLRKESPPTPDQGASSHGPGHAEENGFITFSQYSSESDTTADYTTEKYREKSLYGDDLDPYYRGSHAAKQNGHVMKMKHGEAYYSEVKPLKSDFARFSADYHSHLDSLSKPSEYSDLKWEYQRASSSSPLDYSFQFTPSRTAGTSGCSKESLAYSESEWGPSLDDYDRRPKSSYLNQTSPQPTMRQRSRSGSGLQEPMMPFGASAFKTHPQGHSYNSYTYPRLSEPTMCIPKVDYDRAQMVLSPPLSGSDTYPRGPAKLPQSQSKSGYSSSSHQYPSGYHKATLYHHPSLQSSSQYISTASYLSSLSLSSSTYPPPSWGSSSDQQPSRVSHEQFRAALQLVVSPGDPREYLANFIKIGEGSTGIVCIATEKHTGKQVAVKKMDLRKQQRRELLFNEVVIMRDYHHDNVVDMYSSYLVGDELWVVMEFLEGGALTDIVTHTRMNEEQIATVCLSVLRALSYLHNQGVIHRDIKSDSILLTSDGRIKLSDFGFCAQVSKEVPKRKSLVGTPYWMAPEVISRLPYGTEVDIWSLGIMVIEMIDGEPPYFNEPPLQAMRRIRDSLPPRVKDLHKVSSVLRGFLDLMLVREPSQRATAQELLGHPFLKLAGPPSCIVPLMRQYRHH
T4 sequence (Q9Y243 whole entry): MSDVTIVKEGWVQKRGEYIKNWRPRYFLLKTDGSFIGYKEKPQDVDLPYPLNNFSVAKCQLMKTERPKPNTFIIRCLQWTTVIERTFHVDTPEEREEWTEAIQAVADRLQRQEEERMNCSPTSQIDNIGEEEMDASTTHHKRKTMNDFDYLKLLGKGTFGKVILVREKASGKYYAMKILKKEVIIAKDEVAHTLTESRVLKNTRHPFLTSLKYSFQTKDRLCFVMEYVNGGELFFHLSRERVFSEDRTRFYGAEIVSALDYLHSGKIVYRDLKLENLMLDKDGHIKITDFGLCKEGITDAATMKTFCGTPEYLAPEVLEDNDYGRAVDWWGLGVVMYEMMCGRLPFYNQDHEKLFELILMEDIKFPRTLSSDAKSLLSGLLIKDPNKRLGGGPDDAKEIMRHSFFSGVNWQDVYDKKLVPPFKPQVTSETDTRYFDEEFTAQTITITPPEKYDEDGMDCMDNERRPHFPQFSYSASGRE
T1 sequence (P42685 whole entry): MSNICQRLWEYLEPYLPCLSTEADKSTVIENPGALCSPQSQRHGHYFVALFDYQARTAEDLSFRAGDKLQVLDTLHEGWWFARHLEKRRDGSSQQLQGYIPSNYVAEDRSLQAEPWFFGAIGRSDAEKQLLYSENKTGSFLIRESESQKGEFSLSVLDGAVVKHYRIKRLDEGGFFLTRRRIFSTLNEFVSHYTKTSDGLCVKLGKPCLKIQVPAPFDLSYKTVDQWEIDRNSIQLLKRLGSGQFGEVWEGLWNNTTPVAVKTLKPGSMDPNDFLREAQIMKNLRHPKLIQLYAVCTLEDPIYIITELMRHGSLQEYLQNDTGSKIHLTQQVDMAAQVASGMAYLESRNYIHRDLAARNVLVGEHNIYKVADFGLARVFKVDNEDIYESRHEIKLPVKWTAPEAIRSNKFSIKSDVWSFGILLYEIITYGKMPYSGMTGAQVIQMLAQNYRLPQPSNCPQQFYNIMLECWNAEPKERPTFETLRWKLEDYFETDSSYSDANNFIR
T12 sequence (O75676 whole entry): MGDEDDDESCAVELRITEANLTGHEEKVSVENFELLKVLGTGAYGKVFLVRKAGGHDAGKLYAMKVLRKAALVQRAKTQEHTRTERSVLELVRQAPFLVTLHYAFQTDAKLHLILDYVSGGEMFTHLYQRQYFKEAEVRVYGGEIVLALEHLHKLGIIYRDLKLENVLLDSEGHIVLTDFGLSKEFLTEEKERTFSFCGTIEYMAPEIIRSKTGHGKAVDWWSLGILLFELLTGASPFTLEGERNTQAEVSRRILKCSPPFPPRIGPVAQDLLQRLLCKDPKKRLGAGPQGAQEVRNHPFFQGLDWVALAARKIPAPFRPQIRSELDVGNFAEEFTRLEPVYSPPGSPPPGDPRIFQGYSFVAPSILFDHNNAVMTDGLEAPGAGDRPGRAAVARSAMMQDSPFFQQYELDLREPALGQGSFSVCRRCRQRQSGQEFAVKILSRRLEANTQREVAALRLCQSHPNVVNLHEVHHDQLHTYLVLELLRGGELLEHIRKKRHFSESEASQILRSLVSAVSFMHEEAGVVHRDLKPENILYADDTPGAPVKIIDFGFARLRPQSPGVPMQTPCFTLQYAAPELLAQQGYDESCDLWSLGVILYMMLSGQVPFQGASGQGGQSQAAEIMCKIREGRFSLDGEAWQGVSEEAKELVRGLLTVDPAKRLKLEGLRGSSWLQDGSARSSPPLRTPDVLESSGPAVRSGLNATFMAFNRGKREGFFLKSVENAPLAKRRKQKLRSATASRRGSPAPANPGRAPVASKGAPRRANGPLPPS
T2 sequence (P19784 whole entry): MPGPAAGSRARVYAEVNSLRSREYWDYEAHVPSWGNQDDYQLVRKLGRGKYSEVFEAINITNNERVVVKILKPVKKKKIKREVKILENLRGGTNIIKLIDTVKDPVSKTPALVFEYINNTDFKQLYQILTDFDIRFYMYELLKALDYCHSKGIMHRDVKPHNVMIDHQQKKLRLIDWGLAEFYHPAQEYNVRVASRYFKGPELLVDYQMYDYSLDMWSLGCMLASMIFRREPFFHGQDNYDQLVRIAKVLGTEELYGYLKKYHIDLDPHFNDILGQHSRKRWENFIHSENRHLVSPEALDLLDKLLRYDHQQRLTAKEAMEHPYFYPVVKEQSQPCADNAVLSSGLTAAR
T3 sequence (Q07002 whole entry): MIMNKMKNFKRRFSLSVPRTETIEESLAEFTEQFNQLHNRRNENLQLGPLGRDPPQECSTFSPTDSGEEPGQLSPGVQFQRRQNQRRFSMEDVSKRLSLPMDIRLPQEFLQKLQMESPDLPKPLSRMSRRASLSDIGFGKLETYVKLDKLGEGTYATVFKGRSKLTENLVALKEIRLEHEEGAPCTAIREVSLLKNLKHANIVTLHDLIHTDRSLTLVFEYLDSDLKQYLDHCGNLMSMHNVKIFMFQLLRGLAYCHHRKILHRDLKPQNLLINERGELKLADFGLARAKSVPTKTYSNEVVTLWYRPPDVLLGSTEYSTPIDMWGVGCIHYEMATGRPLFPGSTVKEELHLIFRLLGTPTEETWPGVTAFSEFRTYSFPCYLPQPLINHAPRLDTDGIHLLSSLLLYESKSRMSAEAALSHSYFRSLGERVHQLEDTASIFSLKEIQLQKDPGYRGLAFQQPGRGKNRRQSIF
T8 sequence (Q15208 whole entry): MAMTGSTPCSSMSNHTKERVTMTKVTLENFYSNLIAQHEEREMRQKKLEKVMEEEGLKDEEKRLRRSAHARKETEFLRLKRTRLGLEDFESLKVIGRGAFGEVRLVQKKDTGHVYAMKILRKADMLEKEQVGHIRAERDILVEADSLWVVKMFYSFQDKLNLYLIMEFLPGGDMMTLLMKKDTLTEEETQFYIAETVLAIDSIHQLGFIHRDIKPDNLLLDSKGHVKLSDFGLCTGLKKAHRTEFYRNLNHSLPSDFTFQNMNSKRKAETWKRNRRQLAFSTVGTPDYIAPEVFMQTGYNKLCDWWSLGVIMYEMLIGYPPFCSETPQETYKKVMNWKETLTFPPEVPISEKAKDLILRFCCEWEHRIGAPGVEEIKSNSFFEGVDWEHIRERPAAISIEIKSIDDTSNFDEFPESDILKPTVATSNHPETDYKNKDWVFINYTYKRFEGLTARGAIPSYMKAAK

Nc1cc(C(F)(F)F)c(-c2cc(N3CCOCC3)nc(N3CCOCC3)n2)cn1 [Buparlisib] was tested, and the remaining activity at 1 µM (panel of 442 kinases [1]) was 100%, the remaining activity at 10 µM (panel of 442 kinases [1]; [17]) was 100% and the remaining activity at 1 µM (panel of 442 kinases [2]) was 84%. The remaining activity at 10 µM (panel of 442 kinases [2]; [17]) was 75%, the remaining activity at 1 µM (panel of 442 kinases [3]) was 100% and the remaining activity at 10 µM (panel of 442 kinases [3]; [17]) was 87%. It also gave a remaining activity at 1 µM (panel of 442 kinases [4]) of 84%, a remaining activity at 10 µM (panel of 442 kinases [4]; [17]) of 92% and a remaining activity at 1 µM (panel of 442 kinases [5]) of 92%. It also gave a remaining activity at 10 µM (panel of 442 kinases [5]; [17]) of 100%, a remaining activity at 1 µM (panel of 442 kinases [6]) of 99% and a remaining activity at 10 µM (panel of 442 kinases [6]; [17]) of 100%. For the same molecule, the remaining activity at 1 µM (panel of 442 kinases [7]) was 97%, the remaining activity at 10 µM (panel of 442 kinases [7]; [17]) was 100% and the remaining activity at 1 µM (panel of 442 kinases [8]) was 100%. For the same molecule, the remaining activity at 10 µM (panel of 442 kinases [8]; [17]) was 100%, the remaining activity at 1 µM (panel of 442 kinases [9]) was 100% and the remaining activity at 10 µM (panel of 442 kinases [9]; [17]) was 100%. It also gave a remaining activity at 1 µM (panel of 442 kinases [10]) of 83%, a remaining activity at 10 µM (panel of 442 kinases [10]; 10 µM, read-out: PKN2 (% of control at 10 µM)) of 100% and a remaining activity at 1 µM (panel of 442 kinases [11]) of 100%. It also gave a remaining activity at 10 µM (panel of 442 kinases [11]; 10 µM, read-out: TAK1 (% of control at 10 µM)) of 100%, a remaining activity at 1 µM (panel of 442 kinases [12]; [18]) of 83% and a remaining activity at 10 µM (panel of 442 kinases [12]; kinase RPS6KA4(Kin.Dom.1-N-terminal), read-out: RPS6KA4(Kin.Dom.1-N-terminal) (% of control at 10 µM)) of 100%. For the same molecule, the remaining activity at 1 µM (panel of 442 kinases [12]; [19]) was 94%, the remaining activity at 10 µM (panel of 442 kinases [12]; kinase RPS6KA4(Kin.Dom.2-C-terminal), read-out: RPS6KA4(Kin.Dom.2-C-terminal) (% of control at 10 µM)) was 100% and the remaining activity at 1 µM (panel of 442 kinases [13]) was 98%. The remaining activity at 10 µM (panel of 442 kinases [13]; [17]) was 100%, the remaining activity at 1 µM (panel of 442 kinases [14]) was 96% and the remaining activity at 10 µM (panel of 442 kinases [14]; [17]) was 100%. It also gave a remaining activity at 1 µM (panel of 442 kinases [15]) of 78%, a remaining activity at 10 µM (panel of 442 kinases [15]; [17]) of 69% and a remaining activity at 1 µM (panel of 442 kinases [16]) of 69%. For the same molecule, the remaining activity at 10 µM (panel of 442 kinases [16]; [17]) was 100%.

COc1ncc(-c2ccc3nccc(-c4ccnnc4)c3c2)cc1NS(=O)(=O)c1ccc(F)cc1F [Omipalisib] gave a remaining activity at 1 µM (panel of 442 kinases [1]) of 98%, a remaining activity at 1 µM (panel of 442 kinases [2]) of 75% and a remaining activity at 1 µM (panel of 442 kinases [3]) of 100%. For the same molecule, the remaining activity at 1 µM (panel of 442 kinases [4]) was 100%, the remaining activity at 1 µM (panel of 442 kinases [5]) was 100% and the remaining activity at 1 µM (panel of 442 kinases [6]) was 88%. The remaining activity at 1 µM (panel of 442 kinases [7]) was 100%, the remaining activity at 1 µM (panel of 442 kinases [8]) was 100% and the remaining activity at 1 µM (panel of 442 kinases [9]) was 100%. For the same molecule, the remaining activity at 1 µM (panel of 442 kinases [10]) was 100%, the remaining activity at 1 µM (panel of 442 kinases [11]) was 82% and the remaining activity at 1 µM (panel of 442 kinases [12]; [18]) was 100%. For the same molecule, the remaining activity at 1 µM (panel of 442 kinases [12]; [19]) was 97%, the remaining activity at 1 µM (panel of 442 kinases [13]) was 100% and the remaining activity at 1 µM (panel of 442 kinases [14]) was 100%. It also gave a remaining activity at 1 µM (panel of 442 kinases [15]) of 100% and a remaining activity at 1 µM (panel of 442 kinases [16]) of 100%.

Work on FC(F)c1nc2ccccc2n1-c1nc(N2CCOCC2)nc(N2CCOCC2)n1 [ZSTK474, 2-(difluoromethyl)-1-[4,6-di(4-morpholinyl)-1,3,5-triazin-2-yl]-1H-benzimidazole] yielded a remaining activity at 1 µM (panel of 442 kinases [1]) of 83%, a remaining activity at 1 µM (panel of 442 kinases [2]) of 88% and a remaining activity at 1 µM (panel of 442 kinases [3]) of 100%. It also gave a remaining activity at 1 µM (panel of 442 kinases [4]) of 66%, a remaining activity at 1 µM (panel of 442 kinases [5]) of 93% and a remaining activity at 1 µM (panel of 442 kinases [6]) of 72%. For the same molecule, the remaining activity at 1 µM (panel of 442 kinases [7]) was 82%, the remaining activity at 1 µM (panel of 442 kinases [8]) was 95% and the remaining activity at 1 µM (panel of 442 kinases [9]) was 89%. The remaining activity at 1 µM (panel of 442 kinases [10]) was 100%, the remaining activity at 1 µM (panel of 442 kinases [11]) was 68% and the remaining activity at 1 µM (panel of 442 kinases [12]; [18]) was 100%. The remaining activity at 1 µM (panel of 442 kinases [12]; [19]) was 100%, the remaining activity at 1 µM (panel of 442 kinases [13]) was 96% and the remaining activity at 1 µM (panel of 442 kinases [14]) was 100%. The remaining activity at 1 µM (panel of 442 kinases [15]) was 100% and the remaining activity at 1 µM (panel of 442 kinases [16]) was 100%.

With Cn1c(=O)n(-c2ccc(C(C)(C)C#N)cc2)c2c3cc(-c4cnc5ccccc5c4)ccc3ncc21 [Dactolisib, 2-methyl-2-[4-(3-methyl-2-oxo-8-quinolin-3-yl-2,3-dihydroimidazo[4,5-c]quinolin-1-yl)-phenyl] propionitrile] the remaining activity at 1 µM (panel of 442 kinases [1]) was 85%, the remaining activity at 1 µM (panel of 442 kinases [2]) was 99% and the remaining activity at 1 µM (panel of 442 kinases [3]) was 94%. The remaining activity at 1 µM (panel of 442 kinases [4]) was 84%, the remaining activity at 1 µM (panel of 442 kinases [5]) was 64% and the remaining activity at 1 µM (panel of 442 kinases [6]) was 23%. For the same molecule, the remaining activity at 1 µM (panel of 442 kinases [7]) was 91%, the remaining activity at 1 µM (panel of 442 kinases [8]) was 100% and the remaining activity at 1 µM (panel of 442 kinases [9]) was 87%. For the same molecule, the remaining activity at 1 µM (panel of 442 kinases [10]) was 92%, the remaining activity at 1 µM (panel of 442 kinases [11]) was 55% and the remaining activity at 1 µM (panel of 442 kinases [12]; [18]) was 100%. It also gave a remaining activity at 1 µM (panel of 442 kinases [12]; [19]) of 100%, a remaining activity at 1 µM (panel of 442 kinases [13]) of 97% and a remaining activity at 1 µM (panel of 442 kinases [14]) of 97%. The remaining activity at 1 µM (panel of 442 kinases [15]) was 73% and the remaining activity at 1 µM (panel of 442 kinases [16]) was 100%.

Reference: paper PMC5564600 (Oncotarget, 2017)
